ChEMBL document CHEMBL1201862, “PubChem BioAssay data set” (2004)
Values belong to the molecule of their own block, whether it stands above or below them. Activity calls are given as the source filed them.

Assays:
Fatty acid synthase [1] = molecular target: T1, Fatty acid synthase (Homo sapiens, UniProt P49327); assay: inhibition of human FAS-TE enzyme activity – biochemical, kinetic fluorescence intensity, dose response (AID 624326); type: functional;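 also: rate of fluorescence rise from hydrolysis of a fluorogenic O-methyl fluorescein ester substrate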
T1 sequence (P49327 whole entry, the tested form may be a part): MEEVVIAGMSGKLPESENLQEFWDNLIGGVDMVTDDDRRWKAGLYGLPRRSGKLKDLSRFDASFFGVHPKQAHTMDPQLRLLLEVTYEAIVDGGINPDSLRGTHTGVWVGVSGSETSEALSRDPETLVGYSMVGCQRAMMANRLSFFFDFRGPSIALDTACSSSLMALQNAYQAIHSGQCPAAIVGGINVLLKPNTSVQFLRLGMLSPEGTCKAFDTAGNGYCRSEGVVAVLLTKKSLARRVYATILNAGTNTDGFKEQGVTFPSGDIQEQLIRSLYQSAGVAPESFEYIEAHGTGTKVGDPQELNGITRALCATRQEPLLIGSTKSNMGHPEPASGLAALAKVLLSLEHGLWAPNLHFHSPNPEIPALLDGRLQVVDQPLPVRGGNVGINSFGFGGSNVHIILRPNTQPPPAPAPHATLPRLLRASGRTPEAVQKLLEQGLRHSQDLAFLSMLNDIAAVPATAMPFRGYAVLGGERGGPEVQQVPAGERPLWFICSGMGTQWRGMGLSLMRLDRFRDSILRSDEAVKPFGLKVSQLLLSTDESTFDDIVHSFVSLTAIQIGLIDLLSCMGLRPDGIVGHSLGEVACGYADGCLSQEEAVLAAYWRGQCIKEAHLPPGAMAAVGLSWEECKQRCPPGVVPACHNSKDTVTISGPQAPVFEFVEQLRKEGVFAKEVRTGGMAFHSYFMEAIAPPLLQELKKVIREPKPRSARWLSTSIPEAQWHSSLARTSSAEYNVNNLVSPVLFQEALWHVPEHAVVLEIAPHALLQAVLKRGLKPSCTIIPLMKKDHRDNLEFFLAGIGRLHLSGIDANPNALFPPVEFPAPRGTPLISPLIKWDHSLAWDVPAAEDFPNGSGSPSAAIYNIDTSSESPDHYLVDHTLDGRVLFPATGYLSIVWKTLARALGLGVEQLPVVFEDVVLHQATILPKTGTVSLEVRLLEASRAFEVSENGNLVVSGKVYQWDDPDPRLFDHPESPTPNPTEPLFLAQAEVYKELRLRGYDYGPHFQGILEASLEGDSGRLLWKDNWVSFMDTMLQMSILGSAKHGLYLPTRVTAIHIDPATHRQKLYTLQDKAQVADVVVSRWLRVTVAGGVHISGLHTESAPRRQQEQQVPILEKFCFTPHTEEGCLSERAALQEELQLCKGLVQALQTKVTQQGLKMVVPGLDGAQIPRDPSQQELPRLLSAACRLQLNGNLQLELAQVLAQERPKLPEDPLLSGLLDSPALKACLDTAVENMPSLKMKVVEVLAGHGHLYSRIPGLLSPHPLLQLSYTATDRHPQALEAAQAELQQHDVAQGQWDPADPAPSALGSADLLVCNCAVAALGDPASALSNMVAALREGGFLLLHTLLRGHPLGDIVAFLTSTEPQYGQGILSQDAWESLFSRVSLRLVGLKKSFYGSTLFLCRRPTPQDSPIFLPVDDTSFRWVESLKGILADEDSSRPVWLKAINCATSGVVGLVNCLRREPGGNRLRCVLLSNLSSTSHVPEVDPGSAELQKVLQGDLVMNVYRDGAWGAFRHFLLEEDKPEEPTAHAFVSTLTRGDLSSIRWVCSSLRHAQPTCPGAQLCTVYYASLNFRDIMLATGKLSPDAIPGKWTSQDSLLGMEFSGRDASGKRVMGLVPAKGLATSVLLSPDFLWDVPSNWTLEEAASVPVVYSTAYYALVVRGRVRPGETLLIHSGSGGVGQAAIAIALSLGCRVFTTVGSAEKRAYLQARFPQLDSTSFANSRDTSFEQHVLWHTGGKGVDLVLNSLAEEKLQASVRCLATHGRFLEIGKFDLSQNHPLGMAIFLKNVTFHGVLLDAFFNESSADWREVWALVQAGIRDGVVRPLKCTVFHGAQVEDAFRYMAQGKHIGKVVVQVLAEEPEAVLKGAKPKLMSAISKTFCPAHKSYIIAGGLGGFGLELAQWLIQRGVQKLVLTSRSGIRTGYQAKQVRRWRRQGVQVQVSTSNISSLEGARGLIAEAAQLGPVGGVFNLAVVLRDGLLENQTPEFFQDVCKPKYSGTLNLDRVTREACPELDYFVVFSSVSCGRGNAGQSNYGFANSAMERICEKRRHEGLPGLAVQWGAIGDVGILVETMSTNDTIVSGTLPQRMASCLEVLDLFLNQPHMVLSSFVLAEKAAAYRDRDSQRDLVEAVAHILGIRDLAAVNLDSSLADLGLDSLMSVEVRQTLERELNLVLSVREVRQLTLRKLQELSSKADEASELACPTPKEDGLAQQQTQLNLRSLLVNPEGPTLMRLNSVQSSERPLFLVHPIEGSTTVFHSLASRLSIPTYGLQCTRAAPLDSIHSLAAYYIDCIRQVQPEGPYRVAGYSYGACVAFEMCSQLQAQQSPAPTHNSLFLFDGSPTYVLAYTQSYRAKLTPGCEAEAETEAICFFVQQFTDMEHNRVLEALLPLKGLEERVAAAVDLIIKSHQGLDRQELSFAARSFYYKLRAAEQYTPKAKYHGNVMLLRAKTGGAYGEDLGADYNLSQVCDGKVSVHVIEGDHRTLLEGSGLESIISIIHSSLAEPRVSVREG

[2] = molecular target: Photoreceptor-specific nuclear receptor (Homo sapiens, UniProt Q9Y5X4); type: functional, cell-based;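 also: CHO-S cells with Gal4-NCOR and VP16-NR2E3 two-hybrid luciferase reporter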
Chain of Photoreceptor-specific nuclear receptor (Q9Y5X4 whole entry, the tested form may be a part): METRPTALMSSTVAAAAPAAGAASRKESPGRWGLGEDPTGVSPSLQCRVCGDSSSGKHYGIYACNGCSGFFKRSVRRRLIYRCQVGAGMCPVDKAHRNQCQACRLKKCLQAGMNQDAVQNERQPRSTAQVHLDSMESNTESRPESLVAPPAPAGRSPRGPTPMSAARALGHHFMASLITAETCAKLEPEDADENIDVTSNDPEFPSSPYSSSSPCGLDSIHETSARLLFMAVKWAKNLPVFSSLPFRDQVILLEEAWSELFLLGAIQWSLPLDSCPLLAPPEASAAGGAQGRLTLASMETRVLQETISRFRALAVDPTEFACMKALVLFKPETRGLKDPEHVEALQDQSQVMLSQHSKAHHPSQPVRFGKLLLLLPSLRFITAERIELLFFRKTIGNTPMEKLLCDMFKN

[3] = Luminescence Cell-Based Dose Retest to Confirm Inhibitors of Cancer Stem Cells. [Related pubchem assays (depositor defined):AID2717, AID2721]; type: functional; conditions: Homo sapiens
[4] = viability loss of HMLE_sh_eGFP cells – cell-based, luminescence, counter-screen for HMLE_sh_ECad selective toxicity project, dose response (AID 463074); type: functional, Homo sapiens;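 also: HMLE human mammary epithelial cells expressing control shRNA against eGFP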
Fatty acid synthase [5] = molecular target: T1, Fatty acid synthase; assay: inhibition of human FAS-TE enzyme activity – biochemical, endpoint fluorescence intensity, uHTS hits, dose response (AID 624327); type: functional;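 also: fluorescence from hydrolysis of an O-methyl fluorescein acyl ester substrate by the enzyme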
[6] = molecular target: T2, Corticotropin-releasing factor receptor 2/Corticotropin-releasing factor-binding protein (Homo sapiens, UniProt P24387+Q13324); assay: activators of CRF receptor 2 with binding protein – uHTS hits, confirmation (AID 602473); type: functional; conditions: read-out: EC50_Mean
T2 sequence (Q13324 whole entry): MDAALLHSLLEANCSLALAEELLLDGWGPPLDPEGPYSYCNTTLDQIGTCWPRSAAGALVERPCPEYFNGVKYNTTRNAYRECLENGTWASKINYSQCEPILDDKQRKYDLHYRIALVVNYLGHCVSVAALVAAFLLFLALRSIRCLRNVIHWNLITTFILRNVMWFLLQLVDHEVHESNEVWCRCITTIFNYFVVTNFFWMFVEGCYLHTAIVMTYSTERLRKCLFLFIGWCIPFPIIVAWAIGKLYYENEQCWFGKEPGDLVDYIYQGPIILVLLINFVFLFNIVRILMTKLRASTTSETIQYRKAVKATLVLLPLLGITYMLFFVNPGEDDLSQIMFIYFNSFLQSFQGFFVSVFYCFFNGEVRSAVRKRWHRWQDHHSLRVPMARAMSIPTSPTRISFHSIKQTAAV
T2 sequence (P24387 whole entry): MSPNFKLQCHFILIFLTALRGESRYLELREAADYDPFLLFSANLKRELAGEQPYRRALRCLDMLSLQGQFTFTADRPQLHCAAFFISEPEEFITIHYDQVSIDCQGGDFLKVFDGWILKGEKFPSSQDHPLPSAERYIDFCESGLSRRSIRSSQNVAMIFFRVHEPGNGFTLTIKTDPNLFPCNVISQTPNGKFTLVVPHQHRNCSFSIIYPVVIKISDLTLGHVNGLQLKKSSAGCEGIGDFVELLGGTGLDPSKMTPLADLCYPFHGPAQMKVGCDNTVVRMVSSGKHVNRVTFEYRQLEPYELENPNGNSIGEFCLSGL

[7] = molecular target: T2, Corticotropin-releasing factor receptor 2/Corticotropin-releasing factor-binding protein; assay: Dose Response confirmation of uHTS hits for small molecule antagonists of the CRF-binding protein and CRF-R2 receptor complex.; type: functional; conditions: read-out: IC50_Mean
[8] = blockers of CRF-binding protein–CRF-R2 complex – cell-based, uHTS hits, 384-well, dose response (AID 651639); type: functional, Homo sapiens; conditions: read-out: IC50_Mean
[9] = molecular target: T3, DNA repair and recombination protein RAD54-like (Homo sapiens, UniProt Q92698); assay: RAD54 Holliday junction migration blockers – biochemical, fluorescence, cherry-picked samples, dose series, confirmation (AID 651657); type: functional
T3 sequence (Q92698 whole entry): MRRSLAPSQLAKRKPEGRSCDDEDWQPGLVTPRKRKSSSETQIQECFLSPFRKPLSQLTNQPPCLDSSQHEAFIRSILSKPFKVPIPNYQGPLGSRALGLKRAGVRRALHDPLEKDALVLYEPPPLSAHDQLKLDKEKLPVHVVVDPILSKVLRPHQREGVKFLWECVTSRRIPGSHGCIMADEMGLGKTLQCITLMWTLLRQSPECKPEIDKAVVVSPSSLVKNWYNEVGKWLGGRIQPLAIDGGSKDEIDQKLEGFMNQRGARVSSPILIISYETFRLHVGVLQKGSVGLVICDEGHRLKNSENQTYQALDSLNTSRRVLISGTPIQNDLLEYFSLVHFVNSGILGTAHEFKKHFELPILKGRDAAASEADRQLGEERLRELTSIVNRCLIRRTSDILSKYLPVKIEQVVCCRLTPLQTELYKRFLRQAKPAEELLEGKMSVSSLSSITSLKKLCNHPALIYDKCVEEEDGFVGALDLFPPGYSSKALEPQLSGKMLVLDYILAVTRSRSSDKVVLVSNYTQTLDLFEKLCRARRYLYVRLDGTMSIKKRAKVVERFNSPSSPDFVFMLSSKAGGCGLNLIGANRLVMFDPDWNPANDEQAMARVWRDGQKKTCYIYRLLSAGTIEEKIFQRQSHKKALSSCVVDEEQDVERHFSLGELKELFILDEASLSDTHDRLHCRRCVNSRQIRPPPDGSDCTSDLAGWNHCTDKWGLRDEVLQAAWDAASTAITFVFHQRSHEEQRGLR

[10] = molecular target: T4, Tyrosine-protein phosphatase non-receptor type 11 (Homo sapiens, UniProt Q06124); assay: PTPN11 enzyme inhibitors – biochemical, selectivity assay for STEP inhibitor project, dose response (AID 602367); type: functional; conditions: read-out: IC50_Mean
T4 sequence (Q06124 whole entry): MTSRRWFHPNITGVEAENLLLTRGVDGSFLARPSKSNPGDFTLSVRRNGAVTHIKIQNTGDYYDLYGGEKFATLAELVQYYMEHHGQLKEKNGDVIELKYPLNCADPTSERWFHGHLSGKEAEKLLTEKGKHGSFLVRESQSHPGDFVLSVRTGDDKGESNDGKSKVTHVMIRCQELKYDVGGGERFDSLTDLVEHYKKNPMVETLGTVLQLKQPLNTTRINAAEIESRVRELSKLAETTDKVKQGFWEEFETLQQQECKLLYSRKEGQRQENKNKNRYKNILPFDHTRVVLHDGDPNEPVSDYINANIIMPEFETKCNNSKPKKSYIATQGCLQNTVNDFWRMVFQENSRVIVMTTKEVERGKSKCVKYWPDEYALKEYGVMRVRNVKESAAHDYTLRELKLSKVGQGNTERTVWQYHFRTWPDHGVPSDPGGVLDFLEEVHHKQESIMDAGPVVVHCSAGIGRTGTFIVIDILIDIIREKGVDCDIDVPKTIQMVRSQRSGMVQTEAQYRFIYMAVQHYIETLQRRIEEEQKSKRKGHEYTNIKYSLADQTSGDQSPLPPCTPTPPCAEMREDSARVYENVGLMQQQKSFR

[11] = molecular target: Dual specificity protein phosphatase 3 (Homo sapiens, UniProt P51452); assay: VHR phosphatase inhibition, dose response, selectivity assay for STEP inhibitor project, biochemical (AID 602374); type: functional; conditions: read-out: IC50_Mean
Chain of Dual specificity protein phosphatase 3 (P51452 whole entry): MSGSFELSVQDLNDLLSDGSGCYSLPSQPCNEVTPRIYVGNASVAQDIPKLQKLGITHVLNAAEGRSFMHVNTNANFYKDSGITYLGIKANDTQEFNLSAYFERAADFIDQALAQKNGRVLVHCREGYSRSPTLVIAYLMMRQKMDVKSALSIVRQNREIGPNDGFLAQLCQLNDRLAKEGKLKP

[12] = molecular target: T5, Tyrosine-protein phosphatase non-receptor type 5 (Homo sapiens, UniProt P54829); assay: PTPN5 enzyme inhibition – biochemical, fluorescence intensity, uHTS hits, confirmation (AID 602372); type: functional; conditions: read-out: IC50_Mean
T5 sequence (P54829 whole entry): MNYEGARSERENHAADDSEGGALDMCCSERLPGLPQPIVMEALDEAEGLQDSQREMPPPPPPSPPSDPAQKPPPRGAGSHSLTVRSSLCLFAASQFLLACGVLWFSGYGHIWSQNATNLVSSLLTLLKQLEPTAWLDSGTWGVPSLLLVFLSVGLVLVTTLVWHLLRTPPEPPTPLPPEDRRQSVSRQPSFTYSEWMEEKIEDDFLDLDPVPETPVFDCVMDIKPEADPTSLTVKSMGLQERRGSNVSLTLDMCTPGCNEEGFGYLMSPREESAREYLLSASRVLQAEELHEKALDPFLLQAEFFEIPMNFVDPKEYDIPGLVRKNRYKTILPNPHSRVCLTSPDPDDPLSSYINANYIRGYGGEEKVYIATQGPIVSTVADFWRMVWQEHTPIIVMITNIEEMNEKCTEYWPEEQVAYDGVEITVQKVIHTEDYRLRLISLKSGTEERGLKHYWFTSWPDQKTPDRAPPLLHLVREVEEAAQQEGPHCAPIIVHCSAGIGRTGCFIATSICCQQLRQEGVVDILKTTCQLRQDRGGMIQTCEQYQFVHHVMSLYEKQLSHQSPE

[13] = molecular target: Eukaryotic translation initiation factor 4E (Mus musculus, UniProt P63073); assay: blockers of eIF4G binding by eIF4E – biochemical, TR-FRET, dose response (AID 855); type: functional;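 also: potency for disrupting eIF4E binding to eIF4GI seen as loss of FRET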
Chain of Eukaryotic translation initiation factor 4E (P63073 whole entry): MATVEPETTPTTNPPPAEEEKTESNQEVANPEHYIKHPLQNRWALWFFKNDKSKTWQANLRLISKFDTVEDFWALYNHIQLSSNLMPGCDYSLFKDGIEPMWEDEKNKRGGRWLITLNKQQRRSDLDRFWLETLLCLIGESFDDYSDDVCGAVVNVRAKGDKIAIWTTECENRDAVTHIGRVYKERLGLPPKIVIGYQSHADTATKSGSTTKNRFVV

[14] = fluconazole-exposed Candida albicans growth modulators – fluorescence, retest, confirmation (AID 2467); type: functional, cell-based
[15] = NIH-3T3 fibroblast cytotoxicity, dose response, cytotoxicity control, cell-based, fluorescence, Alamar Blue, secondary assay (AID 2327); type: functional;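 also: NIH-3T3 mouse fibroblasts cultured with fluconazole at 8 µg/mL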
[16] = intracellular Trypanosoma cruzi inhibitors in host cells – cell-based, plate reader, cherry-pick samples, set 3, dose response (AID 651818); type: functional;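 also: compounds incubated with infected cells for about four days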
[17] = molecular target: T6, Histone-lysine N-methyltransferase NSD2 (Homo sapiens, UniProt O96028); type: biochemical
T6 sequence (O96028 whole entry): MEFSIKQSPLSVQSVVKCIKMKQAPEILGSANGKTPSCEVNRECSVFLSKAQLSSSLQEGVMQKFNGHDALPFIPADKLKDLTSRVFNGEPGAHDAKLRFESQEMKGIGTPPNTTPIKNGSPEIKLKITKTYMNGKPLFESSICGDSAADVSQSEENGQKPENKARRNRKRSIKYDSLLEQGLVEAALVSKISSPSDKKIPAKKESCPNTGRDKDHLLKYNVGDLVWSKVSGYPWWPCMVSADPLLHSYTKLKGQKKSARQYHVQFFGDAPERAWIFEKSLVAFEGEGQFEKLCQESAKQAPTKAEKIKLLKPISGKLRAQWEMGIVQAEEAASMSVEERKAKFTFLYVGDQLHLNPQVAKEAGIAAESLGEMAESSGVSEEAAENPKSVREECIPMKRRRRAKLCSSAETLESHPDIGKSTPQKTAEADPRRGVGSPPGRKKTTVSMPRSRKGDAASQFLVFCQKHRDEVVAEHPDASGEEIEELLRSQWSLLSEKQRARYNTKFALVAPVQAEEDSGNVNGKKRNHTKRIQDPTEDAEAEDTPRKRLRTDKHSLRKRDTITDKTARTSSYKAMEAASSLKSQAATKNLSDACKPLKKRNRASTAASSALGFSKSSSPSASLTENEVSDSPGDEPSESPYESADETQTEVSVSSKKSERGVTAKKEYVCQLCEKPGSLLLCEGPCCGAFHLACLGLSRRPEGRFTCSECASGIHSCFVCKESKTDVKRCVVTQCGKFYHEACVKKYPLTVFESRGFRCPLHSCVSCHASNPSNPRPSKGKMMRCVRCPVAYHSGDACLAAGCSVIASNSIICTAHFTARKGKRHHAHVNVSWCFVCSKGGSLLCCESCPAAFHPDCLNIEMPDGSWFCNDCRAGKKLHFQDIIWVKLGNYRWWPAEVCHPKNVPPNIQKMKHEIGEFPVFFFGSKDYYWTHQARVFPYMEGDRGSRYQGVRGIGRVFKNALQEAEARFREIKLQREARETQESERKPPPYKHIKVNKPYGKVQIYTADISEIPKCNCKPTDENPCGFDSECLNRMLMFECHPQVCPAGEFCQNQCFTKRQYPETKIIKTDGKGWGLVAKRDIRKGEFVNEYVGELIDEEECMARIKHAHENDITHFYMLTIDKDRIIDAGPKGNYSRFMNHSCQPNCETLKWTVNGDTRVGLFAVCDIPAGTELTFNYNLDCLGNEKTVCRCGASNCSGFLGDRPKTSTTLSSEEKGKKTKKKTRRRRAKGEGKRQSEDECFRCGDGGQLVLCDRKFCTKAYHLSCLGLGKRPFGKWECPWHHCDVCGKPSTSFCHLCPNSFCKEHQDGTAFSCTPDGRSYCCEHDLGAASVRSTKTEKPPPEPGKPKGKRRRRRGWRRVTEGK

Structure (SMILES): O=C(COC(=O)c1cc([N+](=O)[O-])ccc1N1CCOCC1)Nc1ccc(Cl)cn1
IC50 (Fatty acid synthase [1]): 6.06 µM (active)
IC50 [2]: 1.91 µM (active)
AC50 [3]: 4.89 µM (active)
AC50 [4]: 25.6 µM (active)
IC50 (Fatty acid synthase [5]): 5.2 µM (active)

Structure (SMILES): O=C1/C(=C\c2ccc(Br)cc2)SC(=S)N1NS(=O)(=O)c1ccccc1
EC50 [6]: 36.2 µM (active)
IC50 [7]: 5.5 µM (active)
EC50 [14]: 0.267 µM (active)
IC50 [8]: 17.6 µM (active)
EC50 [15]: 94.2 µM (active)

Structure (SMILES): C[C@@H]1CN([C@H](C)CO)C(=O)c2cc(N(C)C)ccc2O[C@@H]1CN(C)Cc1ccc(C(=O)Nc2ccccc2N)cc1
AC50 [16]: 3.19 µM (active)

Structure (SMILES): C[C@@H]1CN([C@H](C)CO)C(=O)c2cccc(NS(=O)(=O)c3ccc(F)cc3)c2O[C@@H]1CN(C)C(=O)Nc1ccc(C(F)(F)F)cc1
AC50 [16]: 4.16 µM (active)

Structure (SMILES): C[C@@H]1CN([C@@H](C)CO)C(=O)Cc2cc(NC(=O)Nc3ccc(C(F)(F)F)cc3)ccc2O[C@@H]1CN(C)Cc1ccc(C(=O)Nc2ccccc2N)cc1
AC50 [16]: 1.8 µM (active)

Other lines, results leading:

EC50 [6]: > 53 µM (inactive)
IC50 [7]: 4.34 µM (active)
IC50 [8]: 9.76 µM (active)
Structure (SMILES): O=C(O)c1ccc(-n2ncc3c2/C(=C/c2cccc([N+](=O)[O-])c2)CC3)cc1

AC50 [9]: 71.6 µM (active)
Structure (SMILES): CCCN(CCC)CCCNC(=O)c1cc2c(O)nc3ccccc3c2s1

IC50 [10]: 1.89 µM (active)
IC50 [11]: 1.12 µM (active)
IC50 [12]: 16.4 µM (active)
Structure (SMILES): COc1ccc(NC(=S)NCCCN2CCCC2)cc1Cl

IC50 [13]: > 64 µM (inactive)
EC50 [6]: > 53 µM (inactive)
IC50 [7]: 27.4 µM (active)
IC50 [8]: > 20 µM (inactive)
Structure (SMILES): COCC(C)n1c(SCc2ccc(C(=O)OC)o2)nc2ccccc2c1=O (stereo unspecified)

AC50 [17]: > 20 µM (inactive)
AC50 [9]: 25.7 µM (active)
Structure (SMILES): CC(C)NC1CCC(Nc2ccnc3cc(Cl)ccc23)CC1 (stereo unspecified)
